Patent publication US10570152B2, “Antibacterial therapeutics and prophylactics” (VYOME BIOSCIENCES PVT. LTD., priority 2015, dated 2020)
Converted amounts (≈) assume the structure as drawn.

How the values were obtained:
Assay in all cases: MIC by micro broth dilution
Format in all cases: cell-based
[1] = tested on: E. faecium NCIM 5421; details: Enterococcus faecium, NCIM5421, read-out: Minimum inhibitory concentration (MIC)
Procedure: (§1) MIC of DART molecules were determined by micro broth dilution as per CLSI guidelines. Bacterial strains were cultured in Brain Heart Infusion Agar (BHIA) at 37° C. for 24 h. For MIC determination, BHI broth (100 μl) was added to each of the wells of a 96 well plate. 100 μl of broth containing drug was added to the first well (1A to 1H) and thereafter serial (double) dilutions were carried out for up to 10 wells (column 1 to column 10 of the 96 well plate). Bacterial inoculum was prepared by adjusting the bacterial culture turbidity to 0.5 McFarland standard (approximately 1.5×10^8 cells/ml) and further diluted (100 times with sterile BHI broth). Diluted bacterial suspension (100 μl) was added to each well except sterility control wells (column 12 of 96 well plate). The plates were incubated at 37° C. for 24 h. The MIC of the test compound was measured after addition of Alamar blue dye.

[2] = tested on: S. aureus ATCC 43300; details: S. aureus ATCC 43300; for MIC: Staphylococcus aureus, ATCC43300, read-out: Minimum inhibitory concentration (MIC)
Procedure: as §1

[3] = tested on: S. aureus CCARM 3505; details: Staphylococcus aureus, CCARM3505, read-out: Minimum inhibitory concentration (MIC)
Procedure: as §1

[4] = tested on: S. aureus MTCC 6908; details: Staphylococcus aureus, MTCC6908, read-out: Minimum inhibitory concentration (MIC)
Procedure: as §1

[5] = tested on: S. epidermidis ATCC 35984; details: Staphylococcus epidermidis, ATCC35984, read-out: Minimum inhibitory concentration (MIC)
Procedure: as §1

[6] = tested on: S. epidermidis S12-1; details: Staphylococcus epidermidis, S121, read-out: Minimum inhibitory concentration (MIC)
Procedure: as §1

[7] = tested on: E. coli BAA 196; details: Escherichia coli, BAA196, read-out: Minimum inhibitory concentration (MIC)
Procedure: as §1

[8] = tested on: E. coli MTCC 1687; details: Escherichia coli, MTCC1687, read-out: Minimum inhibitory concentration (MIC)
Procedure: as §1

| Compound | MIC [1] [µg/mL] | MIC [2] [µg/mL] | MIC [3] [µg/mL] | MIC [4] [µg/mL] | MIC [5] [µg/mL] | MIC [6] [µg/mL] | Minimum inhibitory concentration (MIC) [2] | MIC [7] [µg/mL] | MIC [8] [µg/mL] |
| --- | --- | --- | --- | --- | --- | --- | --- | --- | --- |
| CC(=O)NC[C@H]1CN(c2ccc(N3CCN(C(=O)NC(=N)N)CC3)c(F)c2)C(=O)O1 [Compound 84, (S)-4-(4-(5-(Acetamidomethyl)-2-oxooxazolidin-3-yl)-2-fluorophenyl)-N-carbamimidoylpiperazine-1-carboxamide] | > 16 | > 16 | > 16 | > 16 | 16 (≈ 38 µM) | 8 (≈ 19 µM) |  |  |  |
| CC(=O)NC[C@H]1CN(c2ccc(N3CCN(C(=O)c4ccccn4)CC3)c(F)c2)C(=O)O1 [Compound 77, (S)—N-((3-(3-fluoro-4-(4-picolinoylpiperazin-1-yl)phenyl)-2-oxooxazolidin-5-yl)methyl)acetamide] | 0.5 (≈ 1.13 µM) | 8 (≈ 18.1 µM) | 8 (≈ 18.1 µM) | 4 (≈ 9.06 µM) | 4 (≈ 9.06 µM) | 4 (≈ 9.06 µM) |  |  |  |
| CC(=O)NC[C@H]1CN(c2ccc(N3CCN(C(=O)c4cccc(Br)n4)CC3)c(F)c2)C(=O)O1 [Compound 76, (S)—N-((3-(4-(4-(6-Bromopicolinoyl)piperazin-1-yl)-3-fluorophenyl)-2-oxooxazolidin-5-yl)methyl)acetamide] | > 16 | 8 (≈ 15.4 µM) | 8 (≈ 15.4 µM) | 4 (≈ 7.69 µM) | 2 (≈ 3.84 µM) | 4 (≈ 7.69 µM) |  |  |  |
| CC(=O)NC[C@H]1CN(c2ccc(N3CCN(C(=O)c4cccc[n+]4[O-])CC3)c(F)c2)C(=O)O1 [Compound 78, (S)-2-(4-(4-(5-(acetamidomethyl)-2-oxooxazolidin-3-yl)-2-fluorophenyl)piperazine-1-carbonyl)-pyridine 1-oxide] | > 16 | 16 (≈ 35 µM) | > 16 | 8 (≈ 17.5 µM) | 8 (≈ 17.5 µM) | 8 (≈ 17.5 µM) |  |  |  |
| CC(=O)NC[C@H]1CN(c2ccc(N3CCN(C(=O)c4csc(NC(=N)N)n4)CC3)c(F)c2)C(=O)O1 [Compound 58, (S)—N-((3-(3-fluoro-4-(4-(2-guanidinothiazole-4-carbonyl)piperazin-1-yl)phenyl)-2-oxooxazolidin-5-yl)methyl)acetamide] | > 16 | > 16 | > 16 | > 16 | > 16 | > 16 |  |  |  |
| CC(=O)NC[C@H]1CN(c2ccc(N3CCN(C(=O)c4coc(N)n4)CC3)c(F)c2)C(=O)O1 [Compound 110, (S)—N-(3-{4-[4-(2-amino-oxazole-4-carbonyl)-piperazin-1-yl]-3-fluoro-phenyl}-2-oxo-oxazolidin-5-ylmethyl)-acetamide] | > 16 | > 16 | > 16 | > 16 | > 16 | > 16 |  |  |  |
| CC(=O)NC[C@H]1CN(c2ccc(N3CCN(Cc4nc5cc(Cl)c(Cl)cc5[nH]4)CC3)c(F)c2)C(=O)O1 [Compound 66, (S)—N-((3-(4-(4-((5,6-Dichloro-1H-benzo[d]imidazol-2-yl)methyl)piperazin-1-yl)-3-fluorophenyl)-2-oxooxazolidin-5-yl)methyl)acetamide] | > 16 |  | > 16 | 8 (≈ 14.9 µM) | 8 (≈ 14.9 µM) | > 16 | 8/16 |  |  |
| CC(=O)NC[C@H]1CN(c2ccc(N3CCN(CC(=O)Nc4ccc5nc(N)[nH]c5c4)CC3)c(F)c2)C(=O)O1 [Compound 68, (S)-2-(4-(4-(5-(acetamidomethyl)-2-oxooxazolidin-3-yl)-2-fluorophenyl)piperazin-1-yl)-N-(2-amino-1H-benzo[d]imidazol-6-yl)acetamide] | > 16 | > 64 | > 16 | 16 (≈ 30.5 µM) | > 16 | > 16 |  |  |  |
| CC1Sc2c(C(=O)O)c(=O)c3cc(F)c(N4CCN(C(=O)CNC(=N)N)CC4)cc3n21 (centres unmarked) [Compound 43, 7-(4-(Carbamimidoylglycyl)piperazin-1-yl)-6-fluoro-1-methyl-4-oxo-1H,4H-[1,3]thiazeto[3,2-a]quinoline-3-carboxylic acid] | > 16 | 8 (≈ 17.8 µM) | > 16 | 8 (≈ 17.8 µM) | > 16 | > 16 |  | > 16 | 0.25 (≈ 0.557 µM) |
